# Data as given in US20230212121A1 (DAEGU-GYEONGBUK MEDICAL INNOVATION FOUNDATION, priority 2020, published 2023).
# Experiments:
# Assay type in all cases: cell-based
# [1] = target: T1, serotonin transporter (SERT) (Homo sapiens, UniProt P31645); assay: Serotonin reuptake inhibition, [3H]-5-HT, HEK-293 cells transfected with 5-HT transporter cDNA; conditions: for Triple reuptake inhibition (Ratio %) SERT: compound 1 μM, [3H]-5-HT, relative to control without compound = 100%, lower value = more inhibition; for IC50: concentration at which Ratio % is 50%, 6 concentrations 1 nM to 1 μM, read-out: Triple reuptake inhibition (IC50, μM) SERT
# T1 construct: expressed in transfected cells; host or cells: HEK-293
# T1 sequence (P31645 whole entry, species assumed): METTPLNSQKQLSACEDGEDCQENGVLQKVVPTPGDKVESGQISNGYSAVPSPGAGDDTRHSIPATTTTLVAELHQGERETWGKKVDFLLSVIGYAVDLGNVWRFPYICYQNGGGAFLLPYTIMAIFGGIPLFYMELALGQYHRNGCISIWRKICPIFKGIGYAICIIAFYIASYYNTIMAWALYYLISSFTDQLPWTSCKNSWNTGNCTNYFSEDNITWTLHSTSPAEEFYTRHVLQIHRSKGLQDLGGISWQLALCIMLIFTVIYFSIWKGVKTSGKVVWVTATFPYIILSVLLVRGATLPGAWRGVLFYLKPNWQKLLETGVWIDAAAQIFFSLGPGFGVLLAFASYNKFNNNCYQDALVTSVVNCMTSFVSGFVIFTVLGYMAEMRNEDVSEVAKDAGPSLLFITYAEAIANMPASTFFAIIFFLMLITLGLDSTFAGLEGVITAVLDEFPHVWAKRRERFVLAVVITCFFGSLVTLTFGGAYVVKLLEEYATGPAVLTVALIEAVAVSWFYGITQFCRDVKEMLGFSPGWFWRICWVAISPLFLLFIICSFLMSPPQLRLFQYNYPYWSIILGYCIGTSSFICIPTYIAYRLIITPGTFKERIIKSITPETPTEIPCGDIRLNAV
# Description: (§1) In order to evaluate the reuptake inhibitory effect of the compounds of the Examples according to the present invention on serotonin, norepinephrine and dopamine, the experiments below were performed, and the results are shown in Table 17.
# (§2) To evaluate the reuptake inhibition effect on dopamine, the dopamine transporter cDNA was transfected using the HEK-293 cell line, and then sub-seeded in a 24 well plate the next day. After removing the medium, each compound of the Examples or Comparative Examples diluted to 1 μM in uptake buffer was added to a concentration of 200 μl/well and cultured at 37° C. for 15 minutes. 100 μl of uptake buffer containing 20-30 nM [3H]-DA was added and cultured at 37° C. for 5 minutes. The reaction solution was quickly removed and washed three times with 1 ml ice-cold uptake buffer. After dissolving the resultant in 1% SDS (0.5 ml), the degree of binding of radioisotope-labeled dopamine to the transporter was measured.
# (§3) For norepinephrine (NE) and serotonin (5-HT), the degree of binding of radioisotope-labeled norepinephrine or serotonin to the transporter was measured in the same manner as above, except that cells transfected with NE or 5-HT transporter cDNA were used and [3H]—NE or [3H]-5-HT was used as a substrate.
# (§4) In addition, when evaluating the reuptake inhibitory effect on dopamine, norepinephrine, and serotonin, the same method was performed without treating each compound of the Examples or Comparative Examples as a control, the degree of binding of radioisotope-labeled dopamine, norepinephrine, and serotonin to the transporter was measured, and by using this as a reference (100%), the triple reuptake inhibitory effect was evaluated as a relative ratio (Ratio %). That is, in the control group, the binding of dopamine, norepinephrine, and serotonin to transporters is not inhibited, but when each compound of the Examples is treated and thus the binding is inhibited, the Ratio % value decreases.
# (§5) Meanwhile, the Ratio % values were compared, and in the case of the compounds of Examples 6, 10, 13, 14, 17, 20, 21, 22, 30, 31, 32, 34, 36, 38, 39, 40, 54, 55, 56, 57, 58 and 73 with excellent reuptake inhibitory effects on dopamine, norepinephrine and serotonin, the concentration at which the Ratio % is 50% was calculated using a total of 6 concentrations (1 nM, 5 nM, 10 nM, 50 nM, 100 nM, and 1 μM) and expressed as IC50.
# [2] = target: T2, norepinephrine transporter (NET) (Homo sapiens, UniProt P23975); assay: Norepinephrine reuptake inhibition, [3H]-NE, HEK-293 cells transfected with NE transporter cDNA; conditions: for Triple reuptake inhibition (Ratio %) NET: compound 1 μM, [3H]-NE, relative to control without compound = 100%, lower value = more inhibition; for IC50: concentration at which Ratio % is 50%, 6 concentrations 1 nM to 1 μM, read-out: Triple reuptake inhibition (IC50, μM) NET
# T2 construct: expressed in transfected cells; host or cells: HEK-293
# T2 sequence (P23975 whole entry, species assumed): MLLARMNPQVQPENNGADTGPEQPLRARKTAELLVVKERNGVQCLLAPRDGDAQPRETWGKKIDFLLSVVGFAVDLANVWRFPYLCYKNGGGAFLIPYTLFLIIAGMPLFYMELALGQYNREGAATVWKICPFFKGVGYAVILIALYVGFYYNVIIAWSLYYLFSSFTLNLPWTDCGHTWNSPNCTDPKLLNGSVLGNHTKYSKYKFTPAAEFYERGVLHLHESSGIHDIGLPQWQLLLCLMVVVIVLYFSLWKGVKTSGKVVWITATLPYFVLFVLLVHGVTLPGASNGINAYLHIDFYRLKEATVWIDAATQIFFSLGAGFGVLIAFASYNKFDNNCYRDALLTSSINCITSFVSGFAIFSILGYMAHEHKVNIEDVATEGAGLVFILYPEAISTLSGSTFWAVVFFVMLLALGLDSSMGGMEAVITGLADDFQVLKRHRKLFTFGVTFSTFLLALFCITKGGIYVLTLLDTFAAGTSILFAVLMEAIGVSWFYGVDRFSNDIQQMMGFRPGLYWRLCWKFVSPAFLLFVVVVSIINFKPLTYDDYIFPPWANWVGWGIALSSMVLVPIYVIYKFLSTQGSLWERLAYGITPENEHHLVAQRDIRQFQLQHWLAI
# Description: as §1, §2, §3, §4, §5
# [3] = target: T3, dopamine transporter (DAT) (Homo sapiens, UniProt Q01959); assay: Dopamine reuptake inhibition, [3H]-DA, HEK-293 cells transfected with dopamine transporter cDNA; conditions: for Triple reuptake inhibition (Ratio %) DAT: compound 1 μM, 20-30 nM [3H]-DA, relative to control without compound = 100%, lower value = more inhibition; for IC50: concentration at which Ratio % is 50%, 6 concentrations 1 nM to 1 μM, read-out: Triple reuptake inhibition (IC50, μM) DAT
# T3 construct: expressed in transfected cells; host or cells: HEK-293
# T3 sequence (Q01959 whole entry, species assumed): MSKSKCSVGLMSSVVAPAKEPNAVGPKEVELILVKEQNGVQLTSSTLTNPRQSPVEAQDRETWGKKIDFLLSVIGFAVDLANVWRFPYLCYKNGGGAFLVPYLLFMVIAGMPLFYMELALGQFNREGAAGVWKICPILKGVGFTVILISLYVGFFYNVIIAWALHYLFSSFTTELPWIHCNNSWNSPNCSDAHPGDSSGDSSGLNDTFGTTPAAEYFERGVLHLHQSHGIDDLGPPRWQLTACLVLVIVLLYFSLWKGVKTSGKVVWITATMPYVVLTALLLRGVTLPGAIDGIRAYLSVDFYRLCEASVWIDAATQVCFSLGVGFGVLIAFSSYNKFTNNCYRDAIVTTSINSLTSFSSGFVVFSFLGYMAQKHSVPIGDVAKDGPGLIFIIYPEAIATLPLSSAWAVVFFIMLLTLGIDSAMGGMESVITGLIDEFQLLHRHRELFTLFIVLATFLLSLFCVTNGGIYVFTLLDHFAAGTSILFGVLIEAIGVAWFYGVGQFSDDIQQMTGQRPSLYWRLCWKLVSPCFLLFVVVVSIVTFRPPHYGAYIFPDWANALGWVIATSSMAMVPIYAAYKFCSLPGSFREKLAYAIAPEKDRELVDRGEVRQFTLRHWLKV
# Description: as §1, §2, §4, §5
SMILES,Triple reuptake inhibition (Ratio %) SERT [1],Triple reuptake inhibition (Ratio %) NET [2],Triple reuptake inhibition (Ratio %) DAT [3],IC50 [1],IC50 [2],IC50 [3]
"CCCCOc1ccc(S(=O)(=O)NCCCN2CCN(c3cccc(Cl)c3Cl)CC2)cc1 [Example 24, 4-butoxy-N-(3-(4-(2,3-dichlorophenyl)piperazin-1-yl)propyl)benzenesulfonamide]",60.27%,58.70%,99.30%,,,
"CCCCOc1ccc(S(=O)(=O)NCCCN2CCN(CC3CCOCC3)CC2)cc1 [Example 25, 4-butoxy-N-(3-(4-((tetrahydro-2H-pyran-4-yl)methyl)piperazin-1-yl)propyl)benzenesulfonamide]",84.44%,102.91%,111.51%,,,
"CCCCOc1ccc(S(=O)(=O)NCCCN2CCN(c3cccc(C(F)(F)F)c3)CC2)cc1 [Example 26, 4-butoxy-N-(3-(4-(3-(trifluoromethyl)phenyl)piperazin-1-yl)propyl)benzenesulfonamide]",50.98%,93.31%,97.83%,,,
"CCCCOc1ccc(S(=O)(=O)NCCCN2CCN(Cc3ccccc3)CC2)cc1 [Example 27, N-(3-(4-benzylpiperazin-1-yl)propyl)-4-butoxybenzenesulfonamide]",76.16%,36.89%,88.17%,,,
"CCCCOc1ccc(S(=O)(=O)NCCCN2CCC(Cc3ccc(Cl)cc3)CC2)cc1 [Example 28, 4-butoxy-N-(3-(4-(4-chlorobenzyl)piperidin-1-yl)propyl)benzenesulfonamide]",26.63%,64.36%,94.53%,,,
"CCCCOc1ccc(S(=O)(=O)NCCCN2CCC(Cc3ccc(C)cc3)CC2)cc1 [Example 29, 4-butoxy-N-(3-(4-(4-methylbenzyl)piperidin-1-yl)propyl)benzenesulfonamide]",39.39%,54.04%,89.50%,,,
"CCCCOc1ccc(S(=O)(=O)NCCCN2CCC(Cc3ccc(OC)cc3)CC2)cc1 [Example 30, 4-butoxy-N-(3-(4-(4-methoxybenzyl)piperidin-1-yl)propyl)benzenesulfonamide]",23.18%,37.58%,,0.538 µM,1.7 µM,11.6 µM
"CCCCOc1ccc(S(=O)(=O)NCCCN2CCC(Cc3cccc(Cl)c3)CC2)cc1 [Example 31, 4-butoxy-N-(3-(4-(3-chlorobenzyl)piperidin-1-yl)propyl)benzenesulfonamide]",14.27%,18.93%,,0.216 µM,0.041 µM,1.05 µM
"CCCCOc1ccc(S(=O)(=O)NCCCN2CCC(Cc3ccc(F)cc3)CC2)cc1 [Example 32, 4-butoxy-N-(3-(4-(4-fluorobenzyl)piperidin-1-yl)propyl)benzenesulfonamide]",30.80%,20.42%,45.64%,0.386 µM,0.749 µM,2.14 µM
"CCCCOc1ccc(S(=O)(=O)NCCCN2CCC(c3cccc(Cl)c3Cl)CC2)cc1 [Example 33, 4-butoxy-N-(3-(4-(2,3-dichlorophenyl)piperidin-1-yl)propyl)benzenesulfonamide]",59.74%,68.93%,66.67%,,,
"O=S(=O)(NCCCN1CCC(Cc2ccccc2)CC1)c1ccc(OC(F)(F)F)cc1 [Example 34, N-(3-(4-benzylpiperidin-1-yl)propyl)-4-(trifluoromethoxy)benzenesulfonamide]",57.25%,20.03%,16.35%,2.59 µM,0.612 µM,0.942 µM
